Laboratory results reported in patent US5750531A, “Pyrimidine derivatives and processes for the preparation thereof” (Yuhan Corporation, priority 1994, dated 1998).
Counter-ions that a name gives are not always drawn.

What was measured:
gastric secretion = experiment: Inhibition of gastric secretion (pylorus ligation, Shay method); format: in vivo, Male Sprague-Dawley rats; conditions: 20 mg/kg intraduodenally, 5 hours; for Rel. Conc.: acid concentration relative to omeprazole; for Relative Acid Output: acid output relative to omeprazole; for Rel. Vol.: gastric juice volume relative to omeprazole
Experimental: Inhibition of gastric secretion […] Under ether anesthesia, the abdomen was incised, and the pylorus was ligated. […] After closing the abdominal cavity, the rats were placed for 5 hours and then killed by cervical dislocation. The stomach was extracted to obtain gastric juice. The gastric juice was centrifuged at 1,000 g to remove precipitates. The amount and acidity of the gastric juice were measured. Relative volumes, relative acid concentrations and relative acid outputs of the test compounds were calculated from equations(I), (II) and (III) and the results are shown in Table 2. […] Group 3) (II) […] (III)

[1] = biological target: proton pump(H^+ /K^+ ATPase); experiment: Inhibition of proton pump(H^+ /K^+ ATPase) activity; format: biochemical; conditions: pH 6.0, 37° C., 30 minutes preincubation and 30 minutes reaction; read-out: IC50 Test compound
Experimental: Test 1: Inhibition of proton pump(H^+ /K^+ ATPase) activity
A proton pump enzyme source was prepared by the same method as in Experiment 1-1 of WO 94/14795. Further, the inhibitory effect of proton pump activity was measured by the same method as in Experiment 1-2 of WO 94/14795.
Namely, the proton pump activity stimulated by Mg^++ was used as a negative comparative group, and the activity stimulated by Mg^++ and K^+ was used as a positive comparative group. The comparative compound was omeprazole.
Test tubes were divided into 4 groups: Group 1 as negative comparative group(n=3), Group 2 as positive comparative group(n=3), Group 3(n=5×2) to be administered with the compound of the present invention and Group 4(n=5×2) to be administered with the comparative compound.
The inhibitory effects of Groups 3 and 4 on proton pump activity were measured by employing the compound prepared in Example and omeperazole, respectively, each of which was dissolved in dimethylsulfoxide at 5 different concentrations.
To each of Groups 1, 2, 3 and 4 were added 100 μl of magnesium chloride(40 mM) dissolved in 40 mM Tris-HCl buffer(pH 6.0) and 100μ of the enzyme source. Then, 50μ of potassium chloride(50 mM) and 50 μl of ammonium chloride(6 mM) dissolved in 40 mM Tris-HCl buffer(pH 6.0) were added to all groups except for Group 1.
10 μl of dimethylsulfoxide was added to each of Groups 1 and 2; and to Group 3 was added 10 μl of the solution in which the compound prepared in Example was dissolved in dimethylsulfoxide at 5 different concentrations(n=5×2). To Group 4, 10 μl of the solution prepared by dissolving omeprazole in dimethylsulfoxide at 5 different concentrations(37.6, 21.4, 12.2, 7.0 and 4.0 μM) was added(n=5×2). 40 mM Tris-HCl buffer(pH=6.0) was added thereto so as to make the total volume 400 μl.
Thereafter, the test tubes of each Group were placed at 37° C. for 30 minutes for the preincubation. 100 μl of ATP solution (6.6 mM) was added until the reaction volume became 500 μl. After the reaction was carried out at 37° C. for 30 minutes, 25% cold trichloroacetic acid was added to terminate the enzyme reaction. The released inorganic phosphate was measured by an automatic analyzer(Express 550, Corning).
The difference between Group 1 and Group 2 represents the proton pump activity activated by K^+ only. The inhibition percentages of Groups 3 and 4 were calculated from Litchfield-wilcoxon equation[see, e.g., J. pharmacol. Exp. Ther., 96, 99(1949)]. The concentrations of the test compounds which inhibit 50% of the proton pump activity are represented as IC50 in Table 1.

| SMILES | Rel. Conc. (gastric secretion) | Relative Acid Output (gastric secretion) | Rel. Vol. (gastric secretion) | IC50 [1] |
| --- | --- | --- | --- | --- |
| Cc1ccccc1Nc1nc(C)c(C)c(N2CCc3ccccc3C2C)n1.Cl (centres unmarked) [Example 24, 5,6-Dimethyl-2-(2-methylphenylamino)-4-(1-methyl-1,2,3,4-tetrahydroisoquinolin-2-yl)pyrimidine hydrochloride] | 1.03 | 1.01 | 1 | 600 nM |
| Cc1cc(F)ccc1Nc1nc(N2CCc3ccccc3C2)nc(C)c1C.Cl [Example 74, 5,6-dimethyl-4-(2-methyl-4-fluorophenylamino)-2-(1,2,3,4-tetrahydroisoquinolin-2-yl)pyrimidine hydrochloride] | 1.49 | 1.16 | 1.22 | 500 nM |
| Cc1cc(F)ccc1Nc1nc(C)c(C)c(N2CCc3ccccc3C2C)n1.Cl (centres unmarked) [Example 12, 5,6-dimethyl-2-(2-methyl-4-fluorophenylamino)-4-(1-methyl-1,2,3,4-tetrahydroisoquinolin-2-yl)pyrimidine hydrochloride] | 0.29 | 0.75 | 1.64 | 600 nM |
| Cc1cc(F)ccc1Nc1nc(C)c(C)c(N2CCc3ccsc3C2C)n1.Cl (centres unmarked) [Example 55, 5,6-dimethyl-2-(2-methyl-4-fluorophenylamino)-4-(7-methyl-4,5,6,7-tetrahydrothieno[2,3-c]pyridin-6-yl)pyrimidine hydrochloride] | 0.11 | 0.51 | 0.56 | 2100 nM |
| CCc1cc(Nc2ccc(F)cc2C)nc(N2CCc3ccccc3C2C)n1.Cl (centres unmarked) [Example 61, 6-Ethyl-4-(2-methyl-4-fluorophenylamino)-2-(1-methyl-1,2,3,4-tetrahydroisoquinolin-2-yl)pyrimidine hydrochloride] | 0.22 | 0.40 | 0.32 | ~12500 nM |
| Cc1cc(F)ccc1Nc1nc(C)c(C)c(N2CCc3ccccc3[C@H]2C)n1.Cl [Example 13, (R)-5,6-Dimethyl-2-(2-methyl-4-fluorophenylamino)-4-(1-methyl-1,2,3,4-tetrahydroisoquinolin-2-yl)pyrimidine hydrochloride] | 0.46 | 0.81 | 1.72 | 500 nM |
| CCc1cc(N2CCc3ccccc3C2C)nc(N(C)c2ccccc2)n1.Cl (centres unmarked) [Example 7, 6-ethyl-2-(N-methylphenylamino)-4-(1-methyl-1,2,3,4-tetrahydroisoquinolin-2-yl)pyrimidine hydrochloride] | 0.09 | 0.48 | 0.51 | – |
| Cc1cc(F)ccc1Nc1nc2c(c(N3CCc4ccccc4C3C)n1)CCCC2.Cl (centres unmarked) [Example 32, 2-(2-methyl-4-fluorophenylamino)-4-(1-methyl-1,2,3,4-tetrahydroisoquinolin-2-yl)-5,6,7,8-tetrahydroquinazoline hydrochloride] | 0.97 | 0.91 | 1.03 | 1200 nM |
| CC1c2ccccc2CCN1c1nc(Nc2ccc(F)cc2)nc2c1CCC2 (centres unmarked) [Example 30, hydrochloride] | 0.2 | 0.39 | 0.33 | ~8400 nM |
| Cc1cc(F)ccc1Nc1nc(C)c(C)c(N2CCc3ccccc3C2)n1.Cl [Example 41, 5,6-dimethyl-2-(2-methyl-4-fluorophenylamino)-4-(1,2,3,4-tetrahydroisoquinolin-2-yl)pyrimidine hydrochloride] | 1.87 | 1.12 | 0.94 | 600 nM |
| CN(c1ccccc1)c1nc2c(c(N3CCc4ccccc4C3)n1)CCCC2.Cl [Example 50, 2-(N-methylphenylamino)-4-(1,2,3,4-tetrahydroisoquinolin-2-yl)-5,6,7,8-tetrahydroquinazoline hydrochloride] | 0.29 | 0.66 | 0.72 | ~16900 nM |
| Cc1nc(N2CCc3ccccc3[C@H]2C)nc(N(C)c2ccccc2)c1C.Cl [Example 72, (R)-5,6-dimethyl-4-(N-methylphenylamino)-2-(1-methyl-1,2,3,4-tetrahydroisoquinolin-2-yl)pyrimidine hydrochloride] | 0.16 | 0.25 | 0.34 | – |
| CC1c2ccccc2CCN1c1nc(N(C)c2ccccc2)nc2c1CCCC2.Cl (centres unmarked) [Example 33, 2-(N-methylphenylamino)-4-(1-methyl-1,2,3,4-tetrahydroisoquinoline-2-yl)-5,6,7,8-tetrahydroquinazoline hydrochloride] | 1.13 | 0.94 | 0.93 | – |
| Cc1nc(N2CCc3ccccc3C2)nc(N(C)c2ccccc2)c1C.Cl [Example 76, 5,6-dimethyl-4-(N-methylphenylamino)-2-(1,2,3,4-tetrahydroisoquinolin-2-yl)pyrimidine hydrochloride] | 0.17 | 0.33 | 0.28 | – |
| CCCc1cc(N2CCc3ccccc3C2C)nc(N(C)c2ccccc2)n1.Cl (centres unmarked) [Example 11, 2-(N-methylphenylamino)-4-(1-methyl-1,2,3,4-tetrahydroisoquinolin-2-yl)-6-propylpyrimidine hydrochloride] | 0.41 | 0.82 | 0.99 | – |
| Cc1nc(N2CCc3ccsc3C2C)nc(N(C)c2ccccc2)c1C.Cl (centres unmarked) [Example 79, 5,6-dimethyl-4-(N-methylphenylamino)-2-(7-methyl-4,5,6,7-tetrahydrothieno[2,3-c]pyridin-6-yl)pyrimidine hydrochloride] | 1.28 | 0.49 | 0.54 | – |
| Cc1nc(N2CCc3ccccc3C2C)nc(N(C)c2ccccc2)c1C.Cl (centres unmarked) [Example 71, 5,6-dimethyl-4-(N-methylphenylamino)-2-(1-methyl-1,2,3,4-tetrahydroisoquinolin-2-yl)pyrimidine hydrochloride] | – | 0.16 | 0.25 | – |
| CCc1nc(N2CCc3ccccc3C2C)nc(Nc2ccc(F)cc2C)c1C.Cl (centres unmarked) [Example 80, 5-methyl-6-ethyl-4-(2-methyl-4-fluorophenylamino)-2-(1-methyl-1,2,3,4-tetrahydroisoquinolin-2-yl)pyrimidine hydrochloride] | 0.29 | 0.44 | 0.32 | – |
| Cc1cc(N2CCc3ccccc3C2)nc(N(C)c2ccccc2)n1.Cl [Example 36, 6-methyl-2-(N-methylphenylamino)-4-(1,2,3,4-tetrahydroisoquinolin-2-yl)pyrimidine hydrochloride] | 0.05 | 0.41 | 0.65 | – |
| Cc1cc(N2CCc3ccccc3C2C)nc(N(C)c2ccccc2)n1.Cl (centres unmarked) [Example 4, 6-methyl-2-(N-methylphenylamino)-4-(1-methyl-1,2,3,4-tetrahydroisoquinolin-2-yl)pyrimidine hydrochloride] | 0.56 | 0.87 | 0.99 | – |
| CCc1nc(Nc2ccc(F)cc2C)nc(N2CCc3ccsc3C2C)c1C.Cl (centres unmarked) [Example 56, 5-methyl-2-(2-methyl-4-fluorophenylamino)-4-(7-methyl-4,5,6,7-tetrahydrothieno[2,3-c]pyridin-6-yl)-6-ethylpyrimidine hydrochloride] | 0.08 | 0.08 | 0.01 | – |
| Cc1nc(N2CCc3ccccc3[C@@H]2C)nc(N(C)c2ccccc2)c1C.Cl [Example 73, (S)-5,6-dimethyl-4-(N-methylphenylamino)-2-(1-methyl-1,2,3,4-tetrahydroisoquinolin-2-yl)pyrimidine hydrochloride] | – | 0.13 | 0.18 | – |
